The results in this text go back to ChEMBL document CHEMBL3044777, “Weed control and sweet maize (Zea mays L.) yield as affected by pyroxasulfone dose” (2011).

Holding throughout (assay type): functional
The test system of test [1] is Digitaria sanguinalis. The experiment in a line: Herbicide activity against Digitaria sanguinalis assessed as weed control at 31.25 g/ha.
Test [2] deals with Amaranthus. Briefly: Herbicide activity against Amaranthus sp. assessed as weed control at 1000 g/ha.
Test [3] relates to Digitaria. Briefly: Herbicide activity against Digitaria assessed as weed control at 274 g/ha in presence of 2% organic matter on soil.
The test system of test [4] is Echinochloa crus-galli. Briefly: Herbicide activity against Echinochloa crus-galli (barnyard grass) assessed as weed control at 31.25 g/ha.
Test [5] relates to Amaranthus palmeri. Briefly: Herbicide activity against Amaranthus palmeri S.Watson assessed as weed control at 125 g/ha.
In test [6] the test system is Abutilon theophrasti. Briefly: Herbicide activity against Abutilon theophrasti (velvetleaf) assessed as weed control at 31.25 g/ha.
Test [7] concerns Setaria viridis. Briefly: Herbicide activity against Setaria viridis (green foxtail) assessed as weed control measured after pre-emergence treatment in southwestern ontario.
Test [8] deals with Amaranthus retroflexus. The experiment in a line: Herbicide activity against Amaranthus retroflexus assessed as weed control measured after pre-emergence treatment in southwestern ontario.
For test [9], the system named is Chenopodium album. Briefly: Herbicide activity against Chenopodium album assessed as weed control measured after pre-emergence treatment in southwestern ontario.
The test system of test [10] is Amaranthus palmeri. The experiment in a line: Herbicide activity against Amaranthus […] (Moq.) Sauer. assessed as weed control at 152 g/ha.

With `Cn1nc(C(F)(F)F)c(CS(=O)(=O)C2=NOC(C)(C)C2)c1OC(F)F` [PYROXASULFONE], the Activity was 90% in test [1]; 90% in test [2]; 90% in [3]; 90% in [4]; 95% in test [5]; 90% in test [6]. The Activity in [10] amounted to 90%. The I90 is recorded as 111 g/ha in test [7], 93 g/ha in [8] and 499 g/ha in test [9].
